Data taken from PubChem BioAssay AID2060329 (Molecular Pharmacology Branch, DTP, NCI, 2025).

Tested on: MCF7 multi-cell spheroids with HUVEC/MSC, viability
Assay: Anticancer human tumor MCF7 cell line growth inhibition [IpAb];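 note: spheroids exposed to agents for seven days before readout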
Conditions: for IC50: curve of first compound; for viability, T/C: stronger effect = lower value
Method in brief: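 Combinations with ipatasertib or abemaciclib were tested on tumour spheroids holding HUVEC (25%) and MSC (15%) alongside 60% malignant cells. Top concentration was at or near clinical Cmax (10 microM if undefined), descending in half-log steps.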

CCCS(=O)(=O)Nc1ccc(F)c(C(=O)c2c[nH]c3ncc(-c4ccc(Cl)cc4)cc23)c1F + CCN1CCN(Cc2ccc(Nc3ncc(F)c(-c4cc(F)c5nc(C)n(C(C)C)c5c4)n3)nc2)CC1
IC50 (second compound 0.01 µM): > 10 µM
IC50 (second compound 0.0316 µM): > 10 µM
IC50 (second compound 0.1 µM): > 10 µM
IC50 (second compound 0.316 µM): > 10 µM
IC50 (second compound 1 µM): 8.1 µM
viability, T/C (second compound 0.01 µM, first compound 0.0316 µM): 97.8%
viability, T/C (second compound 0.01 µM, first compound 0.1 µM): 106%
viability, T/C (second compound 0.01 µM, first compound 0.316 µM): 97.5%
viability, T/C (second compound 0.01 µM, first compound 1 µM): 90.1%
viability, T/C (second compound 0.01 µM, first compound 3.16 µM): 93.4%
viability, T/C (second compound 0.01 µM, first compound 10 µM): 84%
viability, T/C (second compound 0.0316 µM, first compound 0.0316 µM): 89.6%
viability, T/C (second compound 0.0316 µM, first compound 0.1 µM): 96.7%
viability, T/C (second compound 0.0316 µM, first compound 0.316 µM): 91.7%
viability, T/C (second compound 0.0316 µM, first compound 1 µM): 91.9%
viability, T/C (second compound 0.0316 µM, first compound 3.16 µM): 85.3%
viability, T/C (second compound 0.0316 µM, first compound 10 µM): 70.1%
viability, T/C (second compound 0.1 µM, first compound 0.0316 µM): 101%
viability, T/C (second compound 0.1 µM, first compound 0.1 µM): 96.8%
viability, T/C (second compound 0.1 µM, first compound 0.316 µM): 100%
viability, T/C (second compound 0.1 µM, first compound 1 µM): 99.4%
viability, T/C (second compound 0.1 µM, first compound 3.16 µM): 88.4%
viability, T/C (second compound 0.1 µM, first compound 10 µM): 77.3%
viability, T/C (second compound 0.316 µM, first compound 0.0316 µM): 98.3%
viability, T/C (second compound 0.316 µM, first compound 0.1 µM): 103%
viability, T/C (second compound 0.316 µM, first compound 0.316 µM): 94%
viability, T/C (second compound 0.316 µM, first compound 1 µM): 101%
viability, T/C (second compound 0.316 µM, first compound 3.16 µM): 93.1%
viability, T/C (second compound 0.316 µM, first compound 10 µM): 76.5%
viability, T/C (second compound 1 µM, first compound 0.0316 µM): 101%
viability, T/C (second compound 1 µM, first compound 0.1 µM): 94.7%
viability, T/C (second compound 1 µM, first compound 0.316 µM): 92.5%
viability, T/C (second compound 1 µM, first compound 1 µM): 87.8%
viability, T/C (second compound 1 µM, first compound 3.16 µM): 72.9%
viability, T/C (second compound 1 µM, first compound 10 µM): 44.5%
